Measured values: PMC9202104 (BMC Biology, 2022)
Read-outs that look alike come from different tables or passages of the source.

Legend:
ZIKV infection = conditions: read-out: IC50 against ZIKV infection (reported); cited from earlier work
[1] = system: 8 human ZIKV strains (PAN2016, R116265, PAN2015, FLR, R103451, PRVABC59, PLCal_ZV, IbH 30656); assay: microbe, parasite or virus in culture; format: cell-based; conditions: Zika virus, read-out: Average IC50 (human strains)
Method: (§1) After removal of the unbound compounds by centrifugation (after addition of 3% PEG-6000), ZIKV was incubated with Vero E6 cells in 24-well plates at 37°C for 1 h. The cells were then washed with PBS, overlaid with DMEM containing 1% carboxymethyl cellulose and 2% FBS, and cultured at 37°C for 4–5 days, followed by being stained with 0.5% crystal violet. […] Plaques in each well were calculated, and IC50 of compounds for each compound was calculated using the CalcuSyn computer program.

[2] = system: ZIKV human strain PAN2016 (2016/Panama); assay: Plaque assay, inhibition of ZIKV infection (strain PAN2016); conditions: for SI (CC50/IC50): CC50 Vero E6 / IC50 ZIKV PAN2016
Method: as §1

DENV-1-V1792 = assay: Plaque assay, inhibition of DENV-1 infection in LLC-MK2 cells; format: cell-based; conditions: Dengue virus, DENV1
in vitro = format: cell-based; conditions: rhesus monkey
Method: (§2) Briefly, compounds at 2-fold serial dilutions were added to the respective cells (2.0×10^4/well) pre-seeded in 96-well plates. The cells were cultured at 37°C in the presence of 5% CO2 for 3 days, […] incubated with CCK8 solution, followed by measurement of absorbance at 450 nm (A450 value), using a microplate reader (Infinite F200PRO, Tecan, Morrisville, NC, USA). CC50 of compounds was calculated using the CalcuSyn program.

DENV-2 human strain V594 = assay: DENV-2 challenge in Ifnar1−/− mice, flow cytometry titers; format: in vivo; conditions: C6/36 cells, flow cytometry, 3 dpi, 20 mg/kg i.p., representative image
Method: Three days after infection, sera and tissues, including the brain, kidney, and heart, were collected and assessed for DENV infection using a flow cytometry assay, as described below. Tissues were freshly homogenized with cold culture medium (EMEM + 2% FBS) and centrifuged at 4°C and 2000 g for 10 min. Serially diluted tissue supernatants and sera were added to C6/36 cells, as described below. DENV titers in tissues or sera were assessed from ~20 mg of tissue samples, or 25 μl of sera, and used for subsequent flow cytometry analysis.
Flow cytometry assay was carried out to analyze DENV-2 titers in the supernatants of homogenized tissues and sera from DENV-2-infected mice collected above. Briefly, homogenized tissue supernatants or sera were added to C6/36 cells (5×10^5 cells/well) pre-seeded in 24-well plates which the culture medium was removed, and the cells were incubated for 1 h (28°C, 5% CO2). After incubation, the cells were washed with PBS, incubated with EMEM containing 2% FBS, and then cultured for 3 days as described above. After further removal of medium, the cells were digested, washed with PBS, and resuspended in FIX/PERM solution (Tonbo Biosciences, San Diego, CA, USA), followed by incubation at 4°C for 1 h in the dark. The cells were then sequentially incubated with mouse anti-flavivirus mAb 4G2 (2 μg/ml) at 37°C for 1 h and FITC-labeled anti-mouse IgG (0.5 mg/ml, BioLegend, San Diego, CA, USA) at 37°C for 30 min, followed by analysis using a FACScan flow cytometer and Summit software. Viral titers (infectious units/ml or infectious units/g) were calculated using the formula ((% of infected cells)×(total number of cells)×(dilution factor)/(amount of inoculum added to cells)).

DENV-2-V594 = assay: Plaque assay, inhibition of DENV-2 infection in LLC-MK2 cells; format: cell-based; conditions: Dengue virus, DENV2
[3] = system: ZIKV human strain PAN2016; assay: ZIKV challenge in adult Ifnar1−/− mice, tissue viral titers and immunofluorescence; format: in vivo; conditions: 20 mg/kg i.p.; ZIKV PAN2016 200 PFU; 5 dpi; compared to DMSO-treated mice
Method: (§3) Briefly, 7–8-week-old male mice were used, and two separate experiments were performed. […] These mice were i.p. infected with ZIKV (human strain R103451, 200 PFU/mouse) and observed daily for weight changes and survival until 21 dpi. […] Five days later, these mice were sacrificed, and their tissues, including the heart, testis, eye, kidney, and brain, were collected for detection of viral titers by plaque assay, or apoptosis by immunofluorescence staining. Mice losing 20% of initial weight with severe symptoms, including hind limb weakness and paralysis, or 25% of initial weight, were humanely euthanized with an overdose isoflurane in a Bell Jar, followed by cervical dislocation.
Plaque assay was used to detect viral titers in ZIKV-infected tissues. Briefly, tissues were homogenized with cold culture medium (DMEM + 2% FBS) and then centrifuged (2000 g at 4°C for 10 min). Supernatants were serially diluted to infect Vero E6 cells in 24-well plates. ZIKV titers in tissues were measured from ~40 mg of samples; thus, the detection limit was about 25 PFU/g of tissues.
Immunofluorescence staining was carried out to detect ZIKV and caspase-3 signals in ZIKV-infected mouse tissues. Briefly, tissues were fixed in 4% formaldehyde, embedded in paraffin, and sectioned. The tissue sections were deparaffinized, fixed, and permed using the FIX and PERM Cell Permeabilization Kit (Thermo Fisher Scientific, Waltham, MA, USA). After blocking with 5% BSA, the tissue slides were incubated at 37°C 2 h with ZIKV EDIII-specific human mAb (ZV-67, 1:100, Absolute Antibody, Boston, MA, USA), or rabbit anti-active caspase-3 antibody (1:100, Abcam). The slides were washed with PBS and incubated for 30 min with anti-human FITC antibody (1:100, for ZIKV), or anti-rabbit Alexa Fluor 647 antibody (1:100, for caspase-3). The slides were then counterstained for nuclei, using DAPI (300 nM, Thermo Fisher Scientific, Waltham, MA, USA) for 5 min, and mounted in VectaMount Permanent Mounting Medium (Vector Laboratories, CA, USA). The slides were analyzed using a confocal microscope (Zeiss LSM 880) and ZEN software, and fluorescent signals were quantified by ImageJ software.

[4] = system: ZIKV human strain R103451; assay: Lethal ZIKV challenge in adult Ifnar1−/− mice, survival and weight; format: in vivo; conditions: ZIKV R103451 200 PFU
Method: as §3

[5] = system: ZIKV human strain R103451; assay: Plaque assay, inhibition of ZIKV infection (strain R103451); format: cell-based; conditions: Zika virus, Vero C1008, read-out: IC50 R103451
Method: as §1

DENV-3-V1043 = assay: Plaque assay, inhibition of DENV-3 infection in LLC-MK2 cells; format: cell-based; conditions: Dengue virus, DENV3
ZIKV human strain FLR = assay: Plaque assay, inhibition of ZIKV infection (strain FLR); format: cell-based; conditions: Zika virus, Vero C1008, read-out: IC50 FLR
Method: as §1

DENV-4-PR-06-65-740 = assay: Plaque assay, inhibition of DENV-4 infection in LLC-MK2 cells; format: cell-based; conditions: Dengue virus, DENV4
[6] = system: ZIKV human strain PRVABC59; assay: Plaque assay, inhibition of ZIKV infection (strain PRVABC59); format: cell-based; conditions: Zika virus, Vero C1008, read-out: IC50 PRVABC59
Method: as §1

[7] = system: ZIKV rhesus macaque strain MR 766; assay: Plaque assay, inhibition of ZIKV infection (strain MR 766); format: cell-based; conditions: Zika virus, Vero C1008, read-out: IC50 MR 766
Method: as §1

[8] = system: ZIKV human strain IbH 30656; assay: Plaque assay, inhibition of ZIKV infection (strain IbH 30656); format: cell-based; conditions: Zika virus, Vero C1008, read-out: IC50 IbH 30656
Method: as §1

Vero E6 cells = assay: Cytotoxicity, Cell Counting Kit-8, Vero E6 cells; format: cell-based; conditions: African green monkey, 3 days
Method: as §2

[9] = Cytotoxicity, Cell Counting Kit-8, Vero E6 cells; format: cell-based; conditions: African green monkey
Method: as §2

[10] = system: ZIKV mosquito strain MEX 2-81; assay: Plaque assay, inhibition of ZIKV infection (strain MEX 2-81); format: cell-based; conditions: Zika virus, Vero C1008, read-out: IC50 MEX 2-81
Method: as §1

[11] = system: ZIKV human strain PLCal_ZV; assay: Plaque assay, inhibition of ZIKV infection (strain PLCal_ZV); format: cell-based; conditions: Zika virus, Vero C1008, read-out: IC50 PLCal_ZV
Method: as §1

[12] = Zika virus, Vero C1008, in Homo sapiens, read-out: IC50 against infection of ZIKV PAN2016, plaque assay, Vero E6 cells

Q: For CC(=O)Oc1ccccc1C(=O)Nc1ncc([N+](=O)[O-])s1 [Nitazoxanide], which IC50 (ZIKV infection) is on record?
A: Its IC50 is 15.9 µM.

Q: Which IC50 [1] does the source give for Cc1cc2c(C(C)C)c(O)c(O)c(C=O)c2c(O)c1-c1c(C)cc2c(C(C)C)c(O)c(O)c(C=O)c2c1O [Gossypol, reference compound] here?
A: The IC50 was 3.4 µM.

Q: And the IC50 [2, 12]?
A: Its IC50 is 3.8 µM.

Q: What about the IC50 ([2]; read-out: IC50 against infection of ZIKV PAN2016, plaque assay, Vero E6 cells) of the same compound?
A: Its IC50 is 3.78 ± 0.3 µM.

Q: What about the IC50 (DENV-1-V1792) of the same compound?
A: The IC50 was 2.06 ± 0.13 µM.

Q: What about the CC50 at 3 days (in vitro) of the same compound?
A: Its CC50 at 3 days is 19.1 ± 1.09 µM.

Q: What about the “DENV-2 in brain, percentage of infected cells” value (DENV-2 human strain V594) of the same compound?
A: Its value is 3.6%.

Q: What about the “DENV-2 in heart, percentage of infected cells” value (DENV-2 human strain V594) of the same compound?
A: Its value is 3.8%.

Q: What about the “DENV-2 in kidney, percentage of infected cells” value (DENV-2 human strain V594) of the same compound?
A: The value was 4.1%.

Q: And the “DENV-2 in sera, percentage of infected cells” value (DENV-2 human strain V594)?
A: Its value is 50.9%.

Q: What about the IC50 (DENV-2-V594) of the same compound?
A: Its IC50 is 1.91 ± 0.01 µM.

Q: What about the “Viral titers in the heart, kidney, and brain” value [3] of the same compound?
A: The value was “significantly higher”.

Q: What about the “Mice protected from death (survival)” value ([4]; 20 mg/kg i.p. 12 h before and 6, 24, 48 h post-infection, observed 21 days) of the same compound?
A: Its value is “no mice treated with gossypol survived at 6 dpi”.

Q: And the Weight loss ([4]; 20 mg/kg i.p., ST087010 figure during 6–12 dpi)?
A: Its Weight loss is “increased weight loss”.

Q: And the IC50 [5]?
A: Its IC50 is 3.1 µM.

Q: And the IC50 (DENV-3-V1043)?
A: Its IC50 is 3.42 ± 0.11 µM.

Q: And the IC50 (ZIKV human strain FLR)?
A: The IC50 was 0.7 µM.

Q: And the IC50 (DENV-4-PR-06-65-740)?
A: The IC50 was 2.83 ± 0.07 µM.

Q: And the IC50 [6]?
A: Its IC50 is 4.6 µM.

Q: And the IC50 [7]?
A: The IC50 was 4.1 µM.

Q: And the IC50 [8]?
A: Its IC50 is 3.4 µM.

Q: And the CC50 (Vero E6 cells)?
A: The CC50 was 14.49 ± 0.07 µM.

Q: And the CC50 at 3 days ([9]; CC50 Vero E6)?
A: The CC50 at 3 days was 14.5 µM.

Q: And the IC50 [10]?
A: The IC50 was 2.9 µM.

Q: And the IC50 [11]?
A: The IC50 was 2.9 µM.

Q: With Cc1cc2c(c(O)c1-c1c(C)cc3c(c1O)C(C=C1C(=O)NC(=O)NC1=O)C(=O)C(O)=C3C(C)C)C(C=C1C(=O)NC(=O)NC1=O)C(=O)C(O)=C2C(C)C (stereo not shown) [ST004335] as the compound, how does the “SI (CC50/IC50)” value [2] read?
A: Its value is 2.7.

Q: And the IC50 [2, 12]?
A: Its IC50 is 27.4 ± 2.5 µM.

Q: And the CC50 at 3 days ([9]; Vero E6 cells, CCK8, 3 days, read-out: CC50 Vero E6)?
A: Its CC50 at 3 days is 73.9 ± 1.68 µM.

Q: With Cc1cc2c(c(O)c1-c1c(C)cc3c(c1O)/C(=C/NCc1cccnc1)C(=O)C(O)=C3C(C)C)/C(=C/NCc1cccnc1)C(=O)C(O)=C2C(C)C [ST005135] as the compound, how does the “SI (CC50/IC50)” value [2] read?
A: The value was 2.97.

Q: And the IC50 [2, 12]?
A: Its IC50 is 35 ± 2.86 µM.

Q: What about the CC50 at 3 days ([9]; CC50 Vero E6) of the same compound?
A: The CC50 at 3 days was 104 ± 2.2 µM.

Q: With Cc1cc2c(c(O)c1-c1c(C)cc3c(c1O)/C(=C/NCCO)C(=O)C(O)=C3C(C)C)/C(=C/NCCO)C(=O)C(O)=C2C(C)C [ST004331] as the compound, how does the “SI (CC50/IC50)” value [2] read?
A: The value was 1.20.

Q: And the IC50 [2, 12]?
A: Its IC50 is 35.02 ± 0.35 µM.

Q: What about the CC50 at 3 days ([9]; CC50 Vero E6) of the same compound?
A: Its CC50 at 3 days is 42.3 ± 1.17 µM.
